In patent US9867836B2, “Lavage and/or infusion using CSA compounds for increasing fertility in a mammal” (priority 2014, dated 2018):

Tests used:
[1] = system: Alpha hemolytic streptococci; experiment: Sensitivity panel on organism isolated from mare endometrium; type: cell-based; settings: isolate from endometrium of 16 year old Quarter Horse mare
Source text: (§1) The microscopic findings from the lab were described as mild to moderate diffuse acute superficial […], Grade IIA endometrium. The lab also isolated Escherichia coli and Alpha-hemolytic streptococci. The sensitivity panel yielded the results in Table 1.

Escherichia coli = experiment: as above; type: cell-based; settings: isolate from endometrium of 16 year old Quarter Horse mare
Source text: as §1

Compound: NCC[C@H](O)C(=O)N[C@@H]1C[C@H](N)[C@@H](O[C@H]2O[C@H](CN)[C@@H](O)[C@H](O)[C@H]2O)[C@H](O)[C@H]1O[C@H]1O[C@H](CO)[C@@H](O)[C@H](N)[C@H]1O [Amikacin]
- Sensitivity Panel, Alpha hemolytic streptococci organism isolated [1]: Resistant
- Sensitivity Panel, Escherichia coli Organism Isolated (Escherichia coli): Sensitive

Compound: CC1(C)S[C@@H]2[C@H](NC(=O)[C@H](N)c3ccccc3)C(=O)N2[C@H]1C(=O)O [Ampicillin]
- Sensitivity Panel, Alpha hemolytic streptococci organism isolated [1]: Sensitive
- Sensitivity Panel, Escherichia coli Organism Isolated (Escherichia coli): Intermediate

Compound: Cc1nnc(SCC2=C(C(=O)O)N3C(=O)[C@@H](NC(=O)Cn4cnnn4)[C@H]3SC2)s1 [Cefazolin]
- Sensitivity Panel, Alpha hemolytic streptococci organism isolated [1]: Sensitive
- Sensitivity Panel, Escherichia coli Organism Isolated (Escherichia coli): Sensitive

Compound: CO/N=C(\C(=O)N[C@@H]1C(=O)N2C(C(=O)O)=C(CSC(=O)c3ccco3)CS[C@H]12)c1csc(N)n1 [Ceftiofur]
- Sensitivity Panel, Alpha hemolytic streptococci organism isolated [1]: Sensitive
- Sensitivity Panel, Escherichia coli Organism Isolated (Escherichia coli): Sensitive

Compound: CCN1CCN(c2cc3c(cc2F)c(=O)c(C(=O)O)cn3C2CC2)CC1 [Enrofloxacin]
- Sensitivity Panel, Alpha hemolytic streptococci organism isolated [1]: Sensitive
- Sensitivity Panel, Escherichia coli Organism Isolated (Escherichia coli): Sensitive

Compound: CC[C@H]1OC(=O)[C@H](C)[C@@H](O[C@H]2C[C@@](C)(OC)[C@@H](O)[C@H](C)O2)[C@H](C)[C@@H](O[C@@H]2O[C@H](C)C[C@H](N(C)C)[C@H]2O)[C@](C)(O)C[C@@H](C)C(=O)[C@H](C)[C@@H](O)[C@]1(C)O [Erythromycin]
- Sensitivity Panel, Alpha hemolytic streptococci organism isolated [1]: Sensitive

Compound: CS(=O)(=O)c1ccc([C@@H](O)[C@@H](CF)NC(=O)C(Cl)Cl)cc1 [Florfenicol]
- Sensitivity Panel, Escherichia coli Organism Isolated (Escherichia coli): Sensitive

Compound: CO[C@H]1/C=C/O[C@@]2(C)Oc3c(C)c(O)c4c(O)c(c(/C=N/N5CCN(C)CC5)c(O)c4c3C2=O)NC(=O)/C(C)=C\C=C\[C@H](C)[C@H](O)[C@@H](C)[C@@H](O)[C@@H](C)[C@H](OC(C)=O)[C@@H]1C [Rifampin]
- Sensitivity Panel, Alpha hemolytic streptococci organism isolated [1]: Sensitive

Compound: CC1(C)S[C@@H]2[C@H](NC(=O)[C@H](C(=O)O)c3ccsc3)C(=O)N2[C@H]1C(=O)O [Ticarcillin]
- Sensitivity Panel, Alpha hemolytic streptococci organism isolated [1]: Sensitive
- Sensitivity Panel, Escherichia coli Organism Isolated (Escherichia coli): Sensitive

Compound: Gentamicin
- Sensitivity Panel, Alpha hemolytic streptococci organism isolated [1]: Resistant
- Sensitivity Panel, Escherichia coli Organism Isolated (Escherichia coli): Sensitive

Compound: TMP/Sulfa
- Sensitivity Panel, Alpha hemolytic streptococci organism isolated [1]: Sensitive
- Sensitivity Panel, Escherichia coli Organism Isolated (Escherichia coli): Resistant

Compound: Trimmicosin
- Sensitivity Panel, Escherichia coli Organism Isolated (Escherichia coli): Intermediate
